Experimental data from publication PMC10059083, “Design, Synthesis, and Biological Evaluation of Novel Hydroxamic Acid-Based Organoselenium Hybrids” (Pharmaceuticals, 2023).
≈ marks a conversion by molar mass, not a printed value.

Legend:
MCF-7 cells = assay: MTT antiproliferative assay, MCF-7 cells; format: cell-based
Description: (§1) Recently, OSe agents have attracted interest due to their potential chemoprotective and antitumor properties. […] Therefore, we estimated the OSe agents’ antiproliferative activities against different cancer cells, i.e., MCF-7 and HepG2 cells and healthy lung fibroblast WI-38 cells, using the MTT assay. The drug doxorubicin was employed as the standard. The corresponding therapeutic indices (TI) are described as the proportion of the WI38 cells IC50 to the IC50 of the cancer cell (e.g., MCF-7 and HepG2) (Table 1).
(§2) The products’ anticancer activity was examined using the MTT assay against breast (MCF-7) carcinoma cells, liver (HepG2), and normal WI-38 cells, following the previously reported method. Experimental details can be found in the Supplementary Materials.
(§3) 1.1. The biological assays
(§4) 1.1.1. The anticancer activity
(§5) The breast adenocarcinoma (MCF-7), Hepatocellular carcinoma (HEPG-2), and normal fibroblast (WI-38) cells were obtained from ATCC via Holding company for biological products and vaccines (VACSERA), Cairo, Egypt. The reagents […] medium, MTT, DMSO, and fetal bovine serum was obtained from Sigma Aldrich. Dulbecco’s modified Eagle’s medium was used as the culture medium for the cells, and the cytotoxicity was evaluated using the reported MTT assay. Doxorubicin was used as the positive reference, and the IC50 values were obtained from the corresponding dose-response curve.
(§6) This colorimetric assay is based on converting the yellow tetrazolium bromide (MTT) to a purple formazan derivative by mitochondrial succinate dehydrogenase in viable cells. Cell lines were cultured in […] medium with 10% fetal bovine serum. Antibiotics added were 100 units/ml penicillin and 100µg/ml streptomycin at 37 C in a 5% Co2 incubator. The cell lines were seeded in a 96-well plate at a density of 1.0x10^4 cells/well. at 37 C for 48 h under 5% Co2. After incubation, the cells were treated with different concentrations of compounds and incubated for 13 […]
(§7) Finally, dimethyl sulfoxide (DMSO) in the volume of 100 µl is added to each well to dissolve the purple formazan formed. The colorimetric assay is measured and recorded at an absorbance of 570 […]
(§8) The percentage of the relative cell viability was calculated as (A570 of treated samples/A570 of the untreated sample) X 100. […]

WI-38 cells = assay: MTT cytotoxicity assay, normal lung fibroblast WI-38 cells; format: cell-based; settings: Homo sapiens, WI-38, 24 h, read-out: WI38 IC50
Description: as §1, §2, §3, §4, §5, §6, §7, §8

S. aureus [1] = assay: Agar diffusion assay, S. aureus; format: cell-based, Staphylococcus aureus; set-up: concentration or dose not given beside the values; settings: ratio of inhibition zone of compound to that of positive control (ampicillin)
Description: (§9) The encouraging antitumor properties of the OSe compounds motivated us to evaluate their corresponding antimicrobial activities against the C. albicans fungal strain, S. aureus Gram-positive bacteria, and E. coli Gram-negative bacteria. Therefore, we applied the agar diffusion and minimum inhibitory concentration (MIC) methods using clotrimazole antifungal and ampicillin antibacterial drugs as standards.
The products’ antimicrobial properties were examined according to the previously reported method, via agar well diffusion assay against E. coli, S. aureus, and C. albicans. A microdilution method was also used to record MICs (M), following the previously reported procedure. Experimental details can be found in the Supplementary Materials. […]
1.1.2. The antimicrobial activity
The antimicrobial activities of the OSe compounds were evaluate d against C. albicans yeast as well as E. coli gram-negative and S. aureus gram-positive bacteria employing the agar well diffusion assay.
(§10) Briefly, a concentration of 1 mM was prepared for each compound by dissolving in DMSO. Paper discs of standard size […] were sterilized in an autoclave and soaked in 9 µL of the test compounds, and placed in the Petri dishes, which in turn contain a nutrient media (agar 9 g, peptone 5 g, and beef extract 3 g) seeded with the dedicated strain. Incubation lasted for 13 h at 36 0C.
Experiments were replicated three times and the antifungal clotrimazole and antibiotic ampicillin […]

S. aureus [2] = assay: MIC by microdilution, S. aureus; format: cell-based; settings: Staphylococcus aureus; microdilution method
Description: as §9
(§11) The products’ antimicrobial properties were examined according to the previously reported method, via agar well diffusion assay against E. coli, S. aureus, and C. albicans. A microdilution method was also used to record MICs (M), following the previously reported procedure. Experimental details can be found in the Supplementary Materials.
as §10, with “0C. […]” for “0C.”

C. albicans = assay: MIC by microdilution, C. albicans; format: cell-based; settings: Candida albicans, read-out: MIC C. albicans
Description: as §9, §11
as §10, with “0C. […]” for “0C.”

[3] = ABTS radical scavenging assay
Description: The antioxidant activities of the OSe compounds were intensively investigated because these are usually the cause of their chemopreventive potency. Their redox activities were evaluated via DPPH and ABTS assays, using ascorbic acid as the standard. We spectrophotometrically measured the antioxidant efficiency of the OSe compounds by their ability to decolorise the DPPH^. and ABTS^. radicals at […] (Figure 2).
The compounds’ antioxidant properties were assessed by in vitro bioassays using DPPH and ABTS, following the reported method. Details are in the Supplementary Materials.
Figure 4 Estimation of the OSe compounds’ redox activities via DPPH and ABTS experiments. All tests are mean ± S.D. ABTS experiment: absorbance was followed at 734 nm for OSe compounds (50 µL, 1 mM in MeOH) and ABTS solution (60 µL). DPPH Absorbance was monitored at 517 nm for OSe compounds (200 µL, 1 mM in MeOH) and DPPH (400 µL) after 30 min. […]
1.1.3.2. The ABTS bioassay
The antioxidant activity of the investigated compounds was assessed using 2,2’-azino-bis(3-ethylbenzothiazoline-6-sulphonic acid (ABTS) method. The radical cation derived from ABTS was prepared by the reaction of 60 mM ABTS solution with 0.3 M manganese dioxide solution in 0.1M phosphate buffer, pH 7. Then, the mixture was shaken, centrifuged, filtered, and the absorbance (Acontrol ) of […]
the resulting green-blue solution (ABTS radical solution) was measured at wavelength 734 nm. Then, […] of 1 mg/ml test compound in phosphate-buffered methanol was added. The absorbance (Atest) was measured. The reduction in color intensity was expressed as % inhibition. The % inhibition for each […]
compound is calculated from the following equation
Inhibition% = (Acontrol-Asample)/(Acontrol)*100
Ascorbic acid (vitamin C) was used as a standard antioxidant (positive control). A blank sample was run […]
without ABTS and using MeOH/phosphate buffer (1:1) instead of the sample. A negative control sample […]
was run with MeOH/phosphate buffer (1:1) instead of a tested compound.

In the case of `Nc1ccc([Se]CC(=O)NOCc2ccccc2)cc1` [Compound 8, 2-((4-Aminophenyl)selanyl)-N-(benzyloxy)acetamide], the IC50 (MCF-7 cells; Homo sapiens, MCF7, 24 h, read-out: MCF7 IC50) is reported as 9.86 ± 0.7 µM, the “MCF7 TI (therapeutic index)” value (MCF-7 cells; ratio of IC50 against WI38 cells to IC50 against MCF-7 cells) is reported as 2.8 and the IC50 (WI-38 cells) is reported as 27.4 ± 2.1 µM. For the same molecule, the “S. aureus IA% (activity index)” value (S. aureus [1]) was 90.5%, the MIC (S. aureus [2]) was 4 µM (≈ 1.34 µg/mL) and the MIC (C. albicans) was 4 µM (≈ 1.34 µg/mL). The “antioxidant (scavenging) activity in the ABTS assay” value ([3]; compounds 50 µL, 1 mM in MeOH, ABTS solution 60 µL, absorbance at 734 nm) was 73.9% and the IC50 ([3]; concentration causing 50% decrease in absorbance, ABTS assay) was 27.24 ± 0.2 µM.
